Measurements published in article PMC7986981 (ACS Pharmacology & Translational Science, 2021).
pIC50: −log10 of the molar value. Read-outs that look alike come from different tables or passages of the source. Where a SMILES comes first, the peptide text is derived from it. The star is where a group is joined. Cbz = O=C(OCc1ccccc1)*

Legend:
[1] = target: SARS-CoV-2 3CL-Pro (Severe acute respiratory syndrome coronavirus 2, UniProt P0DTD1); assay: biochemical; assay type: biochemical
[2] = test system: SARS-CoV-2 CPE in Caco-2 cells; conditions: cited from earlier work
[3] = test system: SARS-CoV-2 cytopathic effect in Vero-E6 cells; assay type: cell-based
[4] = target: deubiquitinating enzymes; conditions: read-out: IC50 values against several deubiquitinating enzymes; cited from earlier work
[5] = target: MERS 3CL-Pro (Middle East respiratory syndrome-related coronavirus, UniProt K9N7C7); assay type: biochemical; conditions: read-out: IC50 MERS 3CL-Pro
[6] = test system: SARS-CoV 3CL-Pro; conditions: cited from earlier work
[7] = oral drugs, no reference given; cited from earlier work
[8] = test system: chymotrypsin; assay type: biochemical; conditions: 1 mM DTT
[9] = test system: SARS-CoV-2; assay type: cell-based; conditions: read-out: vRNA reduction / viral replication IC50 in Vero-E6 (qPCR)
[10] = 20 μM compound, result in words
[11] = read-out: HP 3CL-Pro IC50, hit profiling, without DTT
[12] = read-out: SARS-CoV-2 3CL-Pro IC50, without DTT, values given in nM
[13] = read-out: SARS-CoV-2 3CL-Pro IC50

Sequence of MERS 3CL-Pro (K9N7C7 3248-3553 limits assumed): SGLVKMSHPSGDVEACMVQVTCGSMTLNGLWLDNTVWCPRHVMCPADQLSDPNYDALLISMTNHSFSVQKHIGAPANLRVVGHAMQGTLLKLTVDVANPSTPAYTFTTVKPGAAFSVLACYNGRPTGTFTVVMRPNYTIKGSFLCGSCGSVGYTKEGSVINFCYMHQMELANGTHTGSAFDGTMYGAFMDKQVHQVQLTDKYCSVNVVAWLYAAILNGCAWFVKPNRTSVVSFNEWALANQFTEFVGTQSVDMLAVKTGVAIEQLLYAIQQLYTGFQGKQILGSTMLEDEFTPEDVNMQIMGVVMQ

**Q.** Which “effect of DTT (0 and 1 mM) on SARS-CoV-2 3CL-Pro inhibition” value (“effect … on SARS-CoV-2 3CL-Pro inhibition” below) [1, 10] does the source give for `O=c1sn(-c2cccc3ccccc23)c(=O)n1Cc1ccccc1` [Tideglusib] here?
**A.** loss of inhibitory capacity

**Q.** With `N#CSc1cc(SC#N)c(N)nc1N` [PR-619] as the compound, how does the “anti-CPE activity against SARS-CoV-2 in Caco-2 cells (words)” value (shortened to “anti-CPE activity”) [2] read?
**A.** inactive

**Q.** And the pIC50 [1, 11]?
**A.** 6.40

**Q.** What about the “anti-CPE effect in Vero-E6 phenotypic assay” value [3] of the same compound?
**A.** inactive

**Q.** What about the pIC50 [4] of the same compound?
**A.** 5.00 to 5.70

**Q.** And the pIC50 [5]?
**A.** 5.64

**Q.** With `CC(Cc1ccc(O)c(O)c1)C(C)Cc1ccc(O)c(O)c1` (stereo not drawn) [nordihydroguaiaretic acid] as the compound, how does the pIC50 [1, 11] read?
**A.** 5.59

**Q.** For `CCOC(=O)/C=C/[C@H](C[C@@H]1CCNC1=O)NC(=O)[C@@H](CC(=O)[C@@H](NC(=O)c1cc(C)on1)C(C)C)Cc1ccc(F)cc1` [rupintrivir], which “activity against SARS-CoV 3CL-Pro” value [6] is on record?
**A.** lacks activity

**Q.** Which IC50 [1, 12] does the source give for `CC(=O)[O][Hg][c]1ccccc1` [phenylmercuric acetate] here?
**A.** 10 nM

**Q.** Which “effect … on SARS-CoV-2 3CL-Pro inhibition” value [1, 10] does the source give for `O=C(O[C@@H]1Cc2c(O)cc(O)cc2O[C@@H]1c1cc(O)c(O)c(O)c1)c1cc(O)c(O)c(O)c1` [epigallocatechin gallate, (-)-Epigallocatechin gallate] here?
**A.** did not show DTT dependence

**Q.** With zinc pyrithione as the compound, how does the pIC50 ([6]; read-out: SARS-CoV 3CL-Pro IC50) read?
**A.** 6.10

**Q.** What about the “effect … on SARS-CoV-2 3CL-Pro inhibition” value [1] of the same compound?
**A.** lost its inhibitory effects in the presence of DTT

**Q.** What about the “effect of preincubation time (15, 30, 60 min) on inhibition” value [1] of the same compound?
**A.** increased with preincubation time

**Q.** And the “fold more potent after preincubation at 37 °C versus 25 °C” value [1]?
**A.** 3 fold

**Q.** With `CCC(C)SSc1ncc[nH]1` (stereo not drawn) [PX-12] as the compound, how does the pIC50 [5] read?
**A.** 5.12

**Q.** For `Oc1c(I)cc(I)c(O)c1I` [riodoxol], which “measured acute toxicity in rodents” value [7] is on record?
**A.** higher than 5 mg/kg

**Q.** With `CC(C)(C)NC(=O)N[C@H](C(=O)N1C[C@H]2[C@@H]([C@H]1C(=O)NC(CC1CCC1)C(=O)C(N)=O)C2(C)C)C(C)(C)C` (stereo partly drawn) [boceprevir] as the compound, how does the inhibition at 20 µM ([1]; read-out: HC 3CL-Pro Inhibition [%] (20 μM), hit confirmation, triplicate, 20 μM compound) read?
**A.** < 50%

**Q.** With `O=c1c2ccccc2sn1-c1ccccc1` [PD08290] as the compound, how does the pIC50 [1, 13] read?
**A.** 7.70

**Q.** Which results are given for `CC[C@H](CO)Nc1nc(NCc2ccc(-c3ccccn3)cc2)c2ncn(C(C)C)c2n1` [CR8-(R)]?
**A.** pIC50 ([1]; read-out: HP 3CL-Pro IC50): 6.10; anti-CPE effect in Vero-E6 phenotypic assay [3]: no anti-CPE effect

**Q.** With `NC(CO)C(=O)NNCc1ccc(O)c(O)c1O` (stereo not drawn) [Benserazide hdrochloride] as the compound, how does the “measured acute toxicity in rodents” value [7] read?
**A.** higher than 5 mg/kg

**Q.** With `Nc1nc2c(ncn2[C@@H]2O[C@H](CO)[C@@H](O)[C@H]2O)c(=S)[nH]1` [Thioguanosine] as the compound, how does the “anti-CPE activity” value [2] read?
**A.** anti-SARS-CoV-2 CPE effects

**Q.** And the “anti-CPE activity” value ([2]; listed as thioguanosine)?
**A.** active

**Q.** Which “Chymotrypsin Inhibition [%] +DTT (10 μM)” value [8] does the source give for `CCCCCCNC(=O)n1cc(F)c(=O)[nH]c1=O` [Carmofur] here?
**A.** 14%

**Q.** And the “effect … on SARS-CoV-2 3CL-Pro inhibition” value [1, 10]?
**A.** insensitive to DTT

**Q.** For `Cn1sc(=O)n(Cc2ccccc2)c1=O` [TDZD-8], which “effect … on SARS-CoV-2 3CL-Pro inhibition” value [1, 10] is on record?
**A.** insensitive to DTT

**Q.** With `COCCCOc1ccnc(C[S+]([O-])c2nc3ccccc3[nH]2)c1C` (stereo not drawn) [rabeprazole] as the compound, how does the “measured acute toxicity in rodents” value [7] read?
**A.** higher than 5 mg/kg

**Q.** With `Oc1cc(CNC(=S)/C=C/c2cc(O)c(O)c(Br)c2)cc(O)c1O` [NT-157] as the compound, how does the pIC50 ([1]; read-out: SARS-CoV-2 3CL-Pro IC50 (unit inferred)) read?
**A.** 6.30

**Q.** For `[H]/N=C(\N/C(=N/[H])NCCCCCCNC(=N)NC(=N)Nc1ccc(Cl)cc1)Nc1ccc(Cl)cc1` [Chlorhexidine], which “effect … on SARS-CoV-2 3CL-Pro inhibition” value [1, 10] is on record?
**A.** not an effective inhibitor

**Q.** Which results are given for `COC(=O)CC[C@H](NC(=O)[C@H](CC(=O)OC)NC(=O)OCc1ccccc1)C(=O)N[C@H](C(=O)N[C@@H](CC(=O)OC)C(=O)CF)C(C)C` [Z-DEVD-FMK]?
**A.** fold higher potency than previously reported ([1]; own IC50 versus literature reports (Z-DEVD-FMK: ref 13)): 600 fold; IC50 [1, 12]: 10 nM; anti-CPE effect in Vero-E6 phenotypic assay [3]: did not influence CPE

**Q.** Which “measured acute toxicity in rodents” value [7] does the source give for `CN1CCc2cccc3c2[C@H]1Cc1ccc(O)c(O)c1-3` [apomorphine] here?
**A.** higher than 5 mg/kg

**Q.** For `Oc1cc2c(cc1O)[C@H]1c3ccccc3CN[C@@H]1CC2` (racemic) [Dihydrexidine], which IC50 ([1]; HP 3CL-Pro IC50 (μM), hit profiling, without DTT) is on record?
**A.** 1100 nM

**Q.** With `Cc1ccc(C)c(-n2sc3cc(F)ccc3c2=O)c1` [MLS0315771] as the compound, how does the pIC50 [1, 13] read?
**A.** 7.70

**Q.** With `CC(C)C[C@@H](C=O)NC(=O)[C@H](CC(C)C)NC(=O)[C@H](CC(C)C)NC(=O)OCc1ccccc1` [MG-132] (Cbz-Leu-Leu-Leu-aldehyde) as the compound, how does the pIC50 [9] read?
**A.** 7.00

**Q.** And the “anti-CPE activity” value [2]?
**A.** active

**Q.** Which “effect … on SARS-CoV-2 3CL-Pro inhibition” value [1, 10] does the source give for `O=c1cc(-c2ccccc2)oc2cc(O)c(O)c(O)c12` [Baicalein] here?
**A.** loss of inhibitory capacity

**Q.** With `O=c1c2ccccc2[se]n1-c1ccccc1` [Ebselen] as the compound, how does the “effect … on SARS-CoV-2 3CL-Pro inhibition” value [1] read?
**A.** loss of inhibitory capacity

**Q.** With `O=c1c2cc(F)ccc2sn1-c1cc(S(=O)(=O)N2CCOCC2)ccc1N1CCOCC1` [ML345] as the compound, how does the pIC50 [1, 13] read?
**A.** 7.70

**Q.** What does the source list for `CCCC[C@@H](C=O)NC(=O)[C@H](CC(C)C)NC(=O)OCc1ccccc1` [calpeptin]?
**A.** effect of DTT (0 and 1 mM) on SARS-CoV-2 3CL-Pro inhibition [1, 10]: retained its inhibitory effect independent of DTT; effect of preincubation time (15, 30, 60 min) on inhibition ([1]; 25 °C, 20 μM, result in words): unchanged

**Q.** For `CCN(CC)C(=S)SSC(=S)N(CC)CC` [Disulfiram], which “effect … on SARS-CoV-2 3CL-Pro inhibition” value [1, 10] is on record?
**A.** loss of inhibitory capacity

**Q.** With `Cc1ccc(-n2sc3ccccc3c2=O)cc1` [PBIT] as the compound, how does the pIC50 [1, 13] read?
**A.** 7.70

**Q.** For `O=c1c(O)c(-c2cc(O)c(O)c(O)c2)oc2cc(O)cc(O)c12` [Myricetin], which “anti-CPE effect in Vero-E6 phenotypic assay” value [3] is on record?
**A.** not reflected in anti-CPE
